How the values were obtained:
Type in all cases: biochemical
[1] = target: FAAH (Homo sapiens (Human), UniProt O00519); assay: In vitro competitive activity-based protein profiling, human proteomes (prefrontal cortex or PC3 cell membrane fractions); conditions: human proteome; for inhibition at 1 µM: read-out: FAAH % inh. 1 μM (human)
Procedure, shortened: (§1)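 Activity of MAGL and FAAH was quantified from fluorescent gel band intensities. Beforehand, inhibitors at several concentrations competed against subsequent probe labelling (FP-Rh, JW912 or HT-01) in species-matched proteomes, each step 30 min at 37° C.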

[2] = target: MAGL (Homo sapiens (Human), UniProt Q99685); assay: as above; conditions: human proteome; for inhibition at 1 µM: read-out: MAGL % inh. 1 μM (human)
Procedure, shortened: as §1

[3] = target: MAGL (Mus musculus (Mouse), UniProt O35678); assay: In vitro competitive activity-based protein profiling, mouse proteomes (brain membrane fraction or cell lysates); conditions: mouse proteome, read-out: MAGL % inh. 1 μM (mouse)
Procedure, shortened: as §1

[4] = target: FAAH (Mus musculus (Mouse), UniProt O08914); assay: as above; conditions: mouse proteome, read-out: FAAH % inh. 1 μM (mouse)
Procedure, shortened: as §1

Chain of FAAH (Homo sapiens (Human), UniProt O00519) (O00519 whole entry): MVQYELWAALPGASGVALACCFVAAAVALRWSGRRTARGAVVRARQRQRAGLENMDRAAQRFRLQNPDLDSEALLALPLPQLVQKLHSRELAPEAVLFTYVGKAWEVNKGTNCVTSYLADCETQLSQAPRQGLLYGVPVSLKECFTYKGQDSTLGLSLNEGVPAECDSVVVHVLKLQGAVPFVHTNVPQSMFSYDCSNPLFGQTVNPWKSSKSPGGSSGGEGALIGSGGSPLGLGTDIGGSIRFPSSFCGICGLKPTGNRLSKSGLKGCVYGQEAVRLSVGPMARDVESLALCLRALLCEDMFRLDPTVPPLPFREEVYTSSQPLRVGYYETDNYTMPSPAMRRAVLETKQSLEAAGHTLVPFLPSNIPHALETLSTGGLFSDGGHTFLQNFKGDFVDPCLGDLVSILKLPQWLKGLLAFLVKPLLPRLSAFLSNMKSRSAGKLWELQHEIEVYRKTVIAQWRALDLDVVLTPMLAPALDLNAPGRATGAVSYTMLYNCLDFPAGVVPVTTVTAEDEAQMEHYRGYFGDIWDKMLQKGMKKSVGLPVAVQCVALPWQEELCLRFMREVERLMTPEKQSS
Chain of MAGL (Homo sapiens (Human), UniProt Q99685) (Q99685 whole entry): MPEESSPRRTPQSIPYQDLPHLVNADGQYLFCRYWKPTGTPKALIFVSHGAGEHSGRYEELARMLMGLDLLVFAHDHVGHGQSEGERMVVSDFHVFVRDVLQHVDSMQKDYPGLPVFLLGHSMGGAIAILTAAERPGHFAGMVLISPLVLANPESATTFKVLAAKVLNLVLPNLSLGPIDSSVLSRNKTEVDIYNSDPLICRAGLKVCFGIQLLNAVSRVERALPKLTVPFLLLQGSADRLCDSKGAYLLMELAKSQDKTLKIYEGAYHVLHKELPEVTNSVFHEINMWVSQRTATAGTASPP
Chain of MAGL (Mus musculus (Mouse), UniProt O35678) (O35678 whole entry): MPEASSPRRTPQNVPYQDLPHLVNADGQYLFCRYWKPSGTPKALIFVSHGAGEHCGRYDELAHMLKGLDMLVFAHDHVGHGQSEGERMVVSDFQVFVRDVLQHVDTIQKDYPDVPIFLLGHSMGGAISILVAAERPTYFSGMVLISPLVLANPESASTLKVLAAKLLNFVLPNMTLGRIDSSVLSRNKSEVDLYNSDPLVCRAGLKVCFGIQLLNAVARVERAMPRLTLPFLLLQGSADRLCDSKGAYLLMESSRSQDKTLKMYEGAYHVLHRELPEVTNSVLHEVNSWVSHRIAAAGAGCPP
Chain of FAAH (Mus musculus (Mouse), UniProt O08914) (O08914 whole entry): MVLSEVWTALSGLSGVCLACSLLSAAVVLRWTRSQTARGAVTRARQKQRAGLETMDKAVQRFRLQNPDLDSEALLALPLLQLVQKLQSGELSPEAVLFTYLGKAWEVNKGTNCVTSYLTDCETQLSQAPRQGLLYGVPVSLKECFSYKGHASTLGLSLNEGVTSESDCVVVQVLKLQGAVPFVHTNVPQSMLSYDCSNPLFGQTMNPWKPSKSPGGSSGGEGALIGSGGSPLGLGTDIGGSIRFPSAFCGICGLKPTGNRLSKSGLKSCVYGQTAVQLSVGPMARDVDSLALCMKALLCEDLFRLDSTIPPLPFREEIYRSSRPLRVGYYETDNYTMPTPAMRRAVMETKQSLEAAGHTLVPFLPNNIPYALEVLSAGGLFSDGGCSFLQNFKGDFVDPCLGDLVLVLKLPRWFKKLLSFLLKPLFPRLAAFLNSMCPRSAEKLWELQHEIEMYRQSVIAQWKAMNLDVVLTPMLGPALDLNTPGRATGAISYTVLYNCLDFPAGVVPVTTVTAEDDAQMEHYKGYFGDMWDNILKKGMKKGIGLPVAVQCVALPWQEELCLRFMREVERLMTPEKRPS

Row | inhibition at 1 µM [1] [%] | inhibition at 1 µM [2] [%] | inhibition at 1 µM [3] [%] | inhibition at 1 µM [4] [%] | Structure (SMILES) | IC50 [1] [µM] | IC50 [2] [µM]
1 | 0 to 25 | 25 to 50 | 25 to 50 | 0 to 25 | CN(Cc1ccc(C(F)(F)F)cc1N1CCC(C(=O)O)C1)C1(C)CCN(C(=O)n2ccc(NS(C)(=O)=O)n2)CC1 (stereo not drawn) [Example 97, 1-(2-((Methyl(4-methyl-1-(3-(methylsulfonamido)-1H-pyrazole-1-carbonyl)piperidin-4-yl)amino)methyl)-5-(trifluoromethyl)phenyl)pyrrolidine-3-carboxylic acid] |  | 
2 | 0 to 25 | > 75 | > 75 | 0 to 25 | C[C@@H]1CN(Cc2ccc(Cl)c(N3CCC(F)CC3)c2)CCN1C(=O)n1ccc(NS(C)(=O)=O)n1 [Example 142, (R)-N-(1-(4-(4-Chloro-3-(4-fluoropiperidin-1-yl)benzyl)-2-methylpiperazine-1-carbonyl)-1H-pyrazol-3-yl)methanesulfonamide] |  | 
3 | 0 to 25 | > 75 | > 75 | 0 to 25 | CC(=O)Nc1ccn(C(=O)N2CCC(C)(N(C)Cc3ccc(C(N)=O)c(C(F)(F)F)c3)CC2)n1 [Example 130, 4-(((1-(3-Acetamido-1H-pyrazole-1-carbonyl)-4-methylpiperidin-4-yl)(methyl)amino)methyl)-2-(trifluoromethyl)benzamide] |  | 
4 | 0 to 25 | > 75 | > 75 | 0 to 25 | CS(=O)(=O)Nc1ccn(C(=O)N2CCN(Cc3cc4ccccc4s3)CC2)n1 [Example 54, N-(1-(4-(Benzo[b]thiophen-2-ylmethyl)piperazine-1-carbonyl)-1H-pyrazol-3-yl)methanesulfonamide] |  | 
5 | 0 to 25 | > 75 | > 75 | > 75 | CC(=O)Nc1ccn(C(=O)N2CCC3(CCCN3C(=O)c3ccc(Cl)c(C4CC4)c3)CC2)n1 [Example 20, N-(1-(1-(4-chloro-3-cyclopropylbenzoyl)-1,8-diazaspiro[4.5]decane-8-carbonyl)-1H-pyrazol-3-yl)acetamide] | 1 to 10 | < 0.1
6 | 0 to 25 | > 75 | > 75 | 0 to 25 | CC(=O)Nc1ccn(C(=O)N2CC3CN(Cc4ccc(C(N)=O)c(C(F)(F)F)c4)CC3C2)n1 (stereo not drawn) [Example 124, 4-((5-(3-Acetamido-1H-pyrazole-1-carbonyl)hexahydropyrrolo[3,4-c]pyrrol-2(1H)-yl)methyl)-2-(trifluoromethyl)benzamide] |  | 
7 | 0 to 25 | > 75 | > 75 | 0 to 25 | CS(=O)(=O)Nc1ccn(C(=O)N2CCN(Cc3cc4cc(F)ccc4[nH]3)CC2)n1 [Example 107, N-(1-(4-((5-Fluoro-1H-indol-2-yl)methyl)piperazine-1-carbonyl)-1H-pyrazol-3-yl)methanesulfonamide] |  | 
8 | 0 to 25 | > 75 | > 75 | 0 to 25 | CS(=O)(=O)Nc1ccn(C(=O)N2CCC(Oc3ccc(C(F)(F)F)c(N4CCC(F)CC4)c3)CC2)n1 [Example 109, N-(1-(4-(3-(4-Fluoropiperidin-1-yl)-4-(trifluoromethyl)phenoxy)piperidine-1-carbonyl)-1H-pyrazol-3-yl)methanesulfonamide] |  | 
9 | 0 to 25 | > 75 | > 75 | 0 to 25 | CS(=O)(=O)Nc1ccn(C(=O)N2CCN(Cc3ccc(Cl)c(N4CC5CN(C(N)=O)CC5C4)c3)CC2)n1 (stereo not drawn) [Example 9, 5-(2-Chloro-5-((4-(3-(methylsulfonamido)-1H-pyrazole-1-carbonyl)piperazin-1-yl)methyl)phenyl)hexahydropyrrolo[3,4-c]pyrrole-2(1H)-carboxamide] |  | 
10 | 0 to 25 | > 75 | > 75 | 0 to 25 | CS(=O)(=O)Nc1ccn(C(=O)N2CCC3(CCN(Cc4cc(Cl)cc(N5CCCC5)c4)C3)CC2)n1 [Example 68, N-(1-(2-(3-Chloro-5-(pyrrolidin-1-yl)benzyl)-2,8-diazaspiro[4.5]decane-8-carbonyl)-1H-pyrazol-3-yl)methanesulfonamide] |  | 
11 | 0 to 25 | > 75 | > 75 | 0 to 25 | CC(=O)Nc1ccn(C(=O)N2CCN(Cc3cccc(C(F)(F)F)c3)CC2)n1 [Example 127, N-(1-(4-(3-(Trifluoromethyl)benzyl)piperazine-1-carbonyl)-1H-pyrazol-3-yl)acetamide] |  | 
12 | 0 to 25 | > 75 | > 75 | 0 to 25 | CS(=O)(=O)Nc1ccn(C(=O)N2CCC3(CCN(Cc4ccc(C(F)(F)F)cc4N4CCOCC4)C3)CC2)n1 [Example 62, N-(1-(2-(2-Morpholino-4-(trifluoromethyl)benzyl)-2,8-diazaspiro[4.5]decane-8-carbonyl)-1H-pyrazol-3-yl)methanesulfonamide] |  | 
13 | 0 to 25 | > 75 | > 75 | 0 to 25 | CC(=O)Nc1ccn(C(=O)N2CCC3(CC2)CN(Cc2ccc(C(N)=O)c(C(F)(F)F)c2)C3)n1 [Example 126, 4-((7-(3-Acetamido-1H-pyrazole-1-carbonyl)-2,7-diazaspiro[3.5]nonan-2-yl)methyl)-2-(trifluoromethyl)benzamide] |  | 
14 | 0 to 25 | > 75 | > 75 | 0 to 25 | CS(=O)(=O)Nc1ccn(C(=O)N2CCC(Oc3ccc(C(F)(F)F)nc3N3CCCC3)CC2)n1 [Example 95, N-(1-(4-((2-(Pyrrolidin-1-yl)-6-(trifluoromethyl)pyridin-3-yl)oxy)piperidine-1-carbonyl)-1H-pyrazol-3-yl)methanesulfonamide] |  | 
15 | 0 to 25 | > 75 | 50 to 75 | 0 to 25 | CS(=O)(=O)Nc1ccn(C(=O)N2CCN(Cc3ccc(C(F)(F)F)c(-c4nnco4)c3)CC2)n1 [Example 116, N-(1-(4-(3-(1,3,4-Oxadiazol-2-yl)-4-(trifluoromethyl)benzyl)piperazine-1-carbonyl)-1H-pyrazol-3-yl)methanesulfonamide] |  | 
16 | 0 to 25 | > 75 | 50 to 75 | 0 to 25 | CCN1CC2CN(c3cc(CN4CCN(C(=O)n5ccc(NS(C)(=O)=O)n5)CC4)ccc3Cl)CC2C1 (stereo not drawn) [Example 153, N-(1-(4-(4-Chloro-3-(5-ethylhexahydropyrrolo[3,4-c]pyrrol-2(1H)-yl)benzyl)piperazine-1-carbonyl)-1H-pyrazol-3-yl)methanesulfonamide] |  | 
17 | 0 to 25 | > 75 | 50 to 75 | 0 to 25 | CS(=O)(=O)Nc1ccn(C(=O)N2CCN(Cc3cccnc3N3CCCC3)CC2)n1 [Example 81, N-(1-(4-((2-(Pyrrolidin-1-yl)pyridin-3-yl)methyl)piperazine-1-carbonyl)-1H-pyrazol-3-yl)methanesulfonamide] |  | 
18 | 25 to 50 | > 75 | > 75 | 25 to 50 | CS(=O)(=O)Nc1ccn(C(=O)N2CCN(Cc3cc4c(Cl)cccc4s3)CC2)n1 [Example 67, N-(1-(4-((4-Chlorobenzo[b]thiophen-2-yl)methyl)piperazine-1-carbonyl)-1H-pyrazol-3-yl)methanesulfonamide] |  | 
19 | 0 to 25 | > 75 | > 75 | 0 to 25 | CC(=O)Nc1ccn(C(=O)N2CCN(Cc3cccc(C(F)(F)F)c3C)CC2)n1 [Example 129, N-(1-(4-(2-Methyl-3-(trifluoromethyl)benzyl)piperazine-1-carbonyl)-1H-pyrazol-3-yl)acetamide] |  | 
20 | 0 to 25 | > 75 | > 75 | 0 to 25 | CS(=O)(=O)Nc1ccn(C(=O)N2CCC3(CCN(Cc4cc(N5CCCC5)cc(C(F)(F)F)c4)C3)CC2)n1 [Example 64, N-(1-(2-(3-(Pyrrolidin-1-yl)-5-(trifluoromethyl)benzyl)-2,8-diazaspiro[4.5]decane-8-carbonyl)-1H-pyrazol-3-yl)methanesulfonamide] |  | 
21 | 25 to 50 | > 75 | > 75 | 50 to 75 | CN(Cc1ccc(C(F)(F)F)nc1N1CCCC1)C1(C)CCN(C(=O)n2ccc(NS(C)(=O)=O)n2)CC1 [Example 91, N-(1-(4-Methyl-4-(methyl((2-(pyrrolidin-1-yl)-6-(trifluoromethyl)pyridin-3-yl)methyl)amino)piperidine-1-carbonyl)-1H-pyrazol-3-yl)methanesulfonamide] |  | 
22 | 0 to 25 | > 75 | > 75 | 25 to 50 | CS(=O)(=O)Nc1ccn(C(=O)N2CCC(Oc3ccc(C(F)(F)F)cc3-c3nccs3)CC2)n1 [Example 15, N-(1-(4-(2-(thiazol-2-yl)-4-(trifluoromethyl)phenoxy)piperidine-1-carbonyl)-1H-pyrazol-3-yl)methanesulfonamide] |  | 

Row | Structure (SMILES) | inhibition at 1 µM [1] [%] | inhibition at 1 µM [2] [%] | inhibition at 1 µM [3] [%] | inhibition at 1 µM [4] [%] | IC50 [1] [µM] | IC50 [2] [µM]
23 | CS(=O)(=O)Nc1ccn(C(=O)N2CCC3(CCN(Cc4ccc(C(F)(F)F)cc4N4C5CCC4COC5)C3)CC2)n1 [Example 74, N-(1-(2-(2-(3-Oxa-8-azabicyclo[3.2.1]octan-8-yl)-4-(trifluoromethyl)benzyl)-2,8-diazaspiro[4.5]decane-8-carbonyl)-1H-pyrazol-3-yl)methanesulfonamide] | 0 to 25 | > 75 | > 75 | 0 to 25 | 1 to 10 | < 0.1

Reference: patent US11149037B2, “Pyrazole MAGL inhibitors” (H. Lundbeck A/S, priority 2017, dated 2021)
